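Dose response: 5 concentrations. Exposure: 48 h. Format: 96-well plates. Endpoint: linear interpolation; highest concentration if not reached. The concentration for full growth arrest is given as TGI.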
Key:
Experiment in all cases: NCI anticancer screen, dose series, 48 h
U251 CNS = test system: U251 CNS
HCT-15 colon = test system: HCT-15 colon
HOP-92 NSCLC = test system: HOP-92 NSCLC
NCI-H460 lung = test system: NCI-H460 lung
OVCAR-8 ovarian = test system: OVCAR-8 ovarian
DLD-1 colon = test system: DLD-1 colon
SNB-19 CNS = test system: SNB-19 CNS
HS 578T breast = test system: HS 578T breast
DU-145 prostate = test system: DU-145 prostate
PC-3 prostate = test system: PC-3 prostate

Compound | TGI (U251 CNS) [µM] | TGI (HCT-15 colon) [µM] | TGI (HOP-92 NSCLC) [µM] | TGI (NCI-H460 lung) [µM] | TGI (OVCAR-8 ovarian) [µM] | TGI (DLD-1 colon) [µM] | TGI (SNB-19 CNS) [µM] | TGI (HS 578T breast) [µM] | TGI (DU-145 prostate) [µM] | TGI (PC-3 prostate) [µM]
CCC1=C(C[C@H]2NCCc3cc(OC)c(OC)cc32)C[C@H]2c3cc(OC)c(OC)cc3CCN2C1 | 0.188 | 1.02 | 0.095 | 0.134 | 0.137 | 0.349 |  |  |  | 
Cc1cc2c(=O)c3ccc(Cl)cc3[nH]c2c(C(N)=O)c1C | > 100 | > 100 | > 100 | > 100 | > 100 | > 100 | > 100 |  |  | 
Oc1ccc2ccccc2c1OCc1nnc(CCCCCCCCc2nnc(COc3c(O)ccc4ccccc34)n2Nc2ccccc2)n1Nc1ccccc1 | > 58.9 | 77.7 | 61.5 | > 100 | 63.1 |  | > 100 | 65.2 | > 70.1 | > 100
Nc1ccc2c(=O)cc(-c3ccc(Br)s3)[nH]c2n1 | > 74.4 | > 100 | > 100 | > 100 | > 57.2 |  | > 100 | > 100 | > 100 | > 100
NC1CCCCC1NCCNC1CCCCC1N (centres undefined) | > 100 | > 100 | > 100 | > 100 | > 100 |  | > 100 | > 100 | > 100 | > 100
O=c1[nH]n(CCc2ccccc2CCl)c2ccc([N+](=O)[O-])cc12 | > 100 | > 100 | > 100 | > 100 | > 100 |  | > 100 | > 100 | > 100 | > 100
Cc1ccc(N=C/C=C(\Nc2ccc(C)cc2)c2ccc3ccccc3c2)cc1 | 7.23 | 4.24 | 27.6 | 13.8 | > 100 |  | 15.4 | 36.8 | 10.7 | 18
CC(OP(=O)(O)O)C(N)C(=O)O (centres undefined) | > 100 | > 100 | > 100 | > 100 | > 100 |  | > 100 | > 100 | > 100 | > 100
CCOc1ccc2nc3nc(=O)[nH]c(C)c3c(NC(C)(CO)CO)c2c1 | > 100 | > 100 | > 100 | > 100 | > 100 |  | > 100 | > 100 | > 100 | > 100
COc1c(C)c(C/C=C(\C)CCCC(C)CCCC(C)CCCC(C)C)c(OC)c2ccccc12 (centres undefined) | > 100 | > 100 | > 100 | > 100 | > 100 |  | > 100 | > 100 | > 100 | > 100
CCOC(=O)C1CCC(=O)N1C(=O)c1cccc(Cl)c1 (centres undefined) | > 100 | > 100 | > 100 | > 100 | > 100 |  | > 100 | > 100 | > 100 | > 100
COc1cccc(NC(=O)CC(=O)n2nc(-c3ccccc3)c(N=Nc3ccc(Cl)cc3)c2-c2ccccc2)c1 | 77.9 | > 100 | > 75 | > 92.5 | 68.3 |  | > 100 | > 82.3 | > 100 | > 100
Oc1c(Cl)cc2cc1-c1cc(cc(Cl)c1O)CCc1c(cc(Cl)c(O)c1Cl)-c1cc(Cl)c(c(Cl)c1O)/C=C\2 | 45.6 | 17.4 | 34.7 | 13.1 | 16.1 |  | 26 | 33.7 | 16.1 | 20.3
CCOC(=O)c1c(N2CCCC2)[nH]c(=O)c(C(c2ccc(N(C)C)cc2)c2c(O)c(C(=O)OCC)c(N3CCCC3)[nH]c2=O)c1O | > 100 | > 100 | > 100 | > 100 | > 100 |  | > 100 | > 100 | > 100 | > 100
CC(C)OP(=O)(OC(C)C)C(C(C)C)N(C)C(N)=NC#N (centres undefined) | > 100 | > 100 | > 100 | > 100 | > 100 |  | > 100 | > 100 | > 100 | > 100
CCCC1=C(OC)C(=O)c2c(C)cc(Cl)nc2C1=O | 18.6 | 11.2 | 11.3 | 26.6 | 23.7 |  | 34.9 | > 47 | 28.6 | 26.4
c1ccc2c(Nc3ncco3)cccc2c1 | > 10 | > 10 | > 10 | > 10 | > 10 |  | > 10 | > 10 | > 10 | > 10

Compound | TGI (U251 CNS) [µM] | TGI (HCT-15 colon) [µM] | TGI (HOP-92 NSCLC) [µM] | TGI (NCI-H460 lung) [µM] | TGI (OVCAR-8 ovarian) [µM] | TGI (DLD-1 colon) [µM] | TGI (SNB-19 CNS) [µM] | TGI (HS 578T breast) [µM] | TGI (DU-145 prostate) [µM] | TGI (PC-3 prostate) [µM]
CC(CCc1nc2ccccc2s1)(c1ccc(O)cc1)c1ccc(O)cc1 | 27.7 | 35.4 | 36.7 | 30 | 39.6 |  | 34.8 | 52.9 | 31.6 | 27.9
O=c1[nH]cc(N=Cc2cc(Cl)ccc2O)c(=O)[nH]1 | 88.2 | > 100 | 89.8 | > 100 | 76.9 |  | > 100 | > 100 | 66.8 | > 100
C=CC(C)(C)/C=C/c1ccc(O)cc1 | > 100 | > 100 | > 100 | > 100 | > 100 |  | > 100 | > 100 | > 100 | 89.4
O=c1cc(-c2ccccc2)oc2c1ccc1[nH]c3ccccc3c(=O)c12 | > 100 | > 100 | > 100 | 36.9 | > 100 |  | > 100 | > 100 | > 100 | > 100
CC/C=C/c1cc2c(cc1O)CCC1C2CC[C@@]2(C)C1CC[C@@H]2O (some centres undefined) | 15.7 | 29.9 | 26 | 17.3 | 20.3 |  | 17.4 | 6.11 | 14.6 | 11.6
O=C1N2CCC[C@H]2CS1(=O)=O | 30 | 29.4 | 25.7 | 88.1 | 55.1 |  | > 100 | > 100 | 35.8 | 31.4
C/C(=N\Nc1nc2ccccc2[nH]1)c1ncccn1 | > 100 | > 100 | 1.93 | > 100 | > 39 |  | > 100 | > 100 | > 100 | > 66
Cc1cc(C)nc(NS(=O)(=O)c2ccc(NNc3c4ccccc4nc4c(C(=O)Nc5ccc(S(=O)(=O)Nc6cc(C)on6)cc5)cccc34)cc2)n1 | 79.2 | > 100 | > 100 | > 100 | > 100 |  | > 100 | > 100 | > 100 | > 100
c1cc2cc3c4c5c(cc6ccc7cc8cc9c%10c8c8c7c6c5c8c5c%10c(c1C9N1CCOCCOCCOCCOCCOCC1)c2c45)C3 (centres undefined) | > 100 | > 100 | > 100 | > 100 | > 100 |  | > 100 | > 100 | > 100 | > 100
Cc1ccc(N2C(=O)C3CSCN3C2=O)cc1 (centres undefined) | > 100 | > 100 | > 100 | > 100 | > 100 | > 100 | > 100 |  |  | 
C=C(Br)C[N+]12CN3CN(CN(C3)C1)C2 | > 100 | > 100 | > 100 | > 100 | > 100 |  | > 100 | > 100 | > 100 | > 100
Clc1ccc(-c2nn3c(COc4cccc(OCc5nnc6sc(-c7ccc(Cl)cc7)nn56)c4)nnc3s2)cc1 | 61.3 | > 100 | > 100 | > 100 | > 100 |  | > 100 | > 100 | 74.3 | > 100
O=C1Nc2cccc(Cl)c2/C1=C\c1c(-c2ccccc2)nc2n1CCS2 | 47.4 | 83.1 | 56.9 | 40.7 | 83.6 |  | 66.1 | 61.4 | 44.9 | 41.8
C/C(=C\Cc1ccc(F)cc1)CCCCCC/C(C)=C/Cc1ccc(F)cc1 | 37.8 | 34.1 | 23.5 | 17 | 39.6 |  | 75.9 | 78.1 | 27.8 | 33.3
CC(=O)CC(=O)N1CCSC1=S | > 10 | > 10 | > 10 | > 10 | > 10 |  | > 10 | > 10 | > 10 | > 10
C=C(CN(CC)CC)C1(c2ccccc2)CC2(CCCC2)C(=O)O1 (centres undefined) | > 100 | > 100 | 83.3 | > 100 | > 100 |  | > 100 | > 100 | > 100 | > 100
CCOC(=O)c1cc2c3c(c(C(C)=O)c(OC)c2[nH]1)N(C(=O)CC)CC3 | 47.6 | 34.2 | 28.9 | 45.3 | 46.9 |  | 26.5 | 57.9 | 29.6 | 72.7
